Measured values taken from US9595012B2, “Method for improving the environmental impact of formulated products” (Johnson & Johnson Consumer Inc., priority 2010, dated 2017).

Key:
[1] = test system: algae; conditions: 50% inhibition in growth rate, empirical acute study; cited from earlier work
[2] = test system: water flea; conditions: 50% immobilization, empirical acute study; cited from earlier work
[3] = test system: fish; conditions: 50% lethality, empirical acute study; cited from earlier work
[4] = test system: fish; assay: Acute aquatic toxicity, vertebrate/secondary consumer, 50% lethality; conditions: scale 0-100, from LC50 by Table 5
[5] = test system: algae; assay: Acute aquatic toxicity, aquatic plant/primary producer, 50% inhibition in growth rate; conditions: scale 0-100, from EC50 by Table 5
[6] = test system: water flea; assay: Acute aquatic toxicity, invertebrate/primary consumer, 50% immobilization; conditions: scale 0-100, from EC50 by Table 5
[7] = test system: aquatic organisms; assay: Overall toxicity scoring (minimum organism-specific toxicity score); conditions: scale 0-100; minimum of the organism-specific scores
Description: Using the linear scoring scale in Table 5 (below), each of the three organism L(E)C50 values (i.e., LC50 or EC50 values) are transformed to an organism-specific toxicity score for the ingredient. If the organism-specific toxicity score is based on an estimated L(E)C50 value rather than an empirical L(E)C50 value, that score is reduced by an uncertainty penalty (e.g., 5 points).
The overall ingredient toxicity score is determined as the minimum organism-specific toxicity score. If no score could be determined for one class of aquatic indicator organism (i.e., primary producer, primary consumer, secondary consumer), the overall ingredient toxicity score is reduced by an uncertainty penalty (e.g., 5 points). If no score could be determined for two classes of aquatic indicator organisms, the overall ingredient score is reduced by a larger uncertainty penalty (e.g., 10 points).
The process used for ingredients that are organic compounds is also used for ingredients that are inorganic compounds with the following exceptions: (1) only empirical data are considered, as models for predicting the aquatic toxicity of metals are not widely available; (2) the toxicity of the ingredient and all plausible environmental degradants are calculated. The lowest Toxicity score among the ingredient and its plausible environmental degradants is assigned as the final Toxicity score for the ingredient.

Compound | Aquatic Plant EC50 [1] | Invertebrate EC50 [2] | Fish LC50 [3] | Fish toxicity score [4] | Aquatic Plant toxicity score [5] | Invertebrate toxicity score [6] | Toxicity score [7]
OCC(O)CO [Glycerin] | 46,000 mg/L | 10,000 mg/L | 5,000 mg/L | 100 | 100 | 100 | 100
[Zn+2] [Zn^2+] |  |  |  |  |  |  | zero
[O]=[Zn] [zinc oxide] |  |  |  |  |  |  | zero
